Target: T1, hVR1 (Homo sapiens, UniProt Q8NER1)
T1 construct: expressed in transfected cells; host or cells: HEK293
Assay: Human VR1 (hVR1) Functional Assay (FLIPR intracellular calcium, capsaicin challenge)
Assay type: cell-based
Details: capsaicin 0.030 μM, HEK293 cells expressing hVR1; for inhibition at 1 µM: test concentration 1 μM

T1 sequence (Q8NER1 whole entry): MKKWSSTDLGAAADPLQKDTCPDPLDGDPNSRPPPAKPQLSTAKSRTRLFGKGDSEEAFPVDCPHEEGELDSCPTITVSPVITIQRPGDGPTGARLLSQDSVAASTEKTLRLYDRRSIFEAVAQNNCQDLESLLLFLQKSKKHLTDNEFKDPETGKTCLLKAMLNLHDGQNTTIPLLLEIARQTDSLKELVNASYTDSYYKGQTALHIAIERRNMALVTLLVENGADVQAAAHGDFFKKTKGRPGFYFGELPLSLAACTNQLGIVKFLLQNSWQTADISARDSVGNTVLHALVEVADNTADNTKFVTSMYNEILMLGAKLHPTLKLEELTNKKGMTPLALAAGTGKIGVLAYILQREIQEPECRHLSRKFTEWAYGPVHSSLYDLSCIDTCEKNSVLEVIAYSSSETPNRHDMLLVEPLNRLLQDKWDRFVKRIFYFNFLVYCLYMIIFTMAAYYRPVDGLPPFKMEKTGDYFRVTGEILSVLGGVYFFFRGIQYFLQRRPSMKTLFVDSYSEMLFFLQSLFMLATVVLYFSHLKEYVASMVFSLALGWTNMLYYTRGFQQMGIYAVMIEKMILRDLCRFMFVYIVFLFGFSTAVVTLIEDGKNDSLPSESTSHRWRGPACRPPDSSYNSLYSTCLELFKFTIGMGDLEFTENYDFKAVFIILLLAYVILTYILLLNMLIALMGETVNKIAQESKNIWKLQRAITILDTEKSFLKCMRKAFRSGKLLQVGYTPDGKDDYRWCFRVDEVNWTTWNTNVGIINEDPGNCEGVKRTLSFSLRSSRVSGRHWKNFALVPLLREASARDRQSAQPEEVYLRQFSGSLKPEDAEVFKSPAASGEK

| SMILES | IC50 | inhibition at 1 µM |
| --- | --- | --- |
| CC(C)(O)c1ccccc1-c1ccc2[nH]c(C#Cc3cccc(C(F)(F)F)c3)nc2c1 [Cpd 294, 2-{2-[2-(3-trifluoromethyl-phenylethynyl)-1H-benzimidazol-5-yl]-phenyl}-propan-2-ol] | 9.1 nM | 101% |
| NS(=O)(=O)c1ccccc1-c1ccc2[nH]c(/C=C/c3ccc(F)cc3F)nc2c1 [Cpd 357, (E)-2-{2-[2-(2,4-difluoro-phenyl)-vinyl]-1H-benzimidazol-5-yl}-benzenesulfonamide] | 8 nM | 100% |
| CC(C)(O)c1ccccc1-c1ccc2[nH]c(/C=C/c3ccc4ncccc4c3)nc2c1 [Cpd 449, (E)-2-{2-[2-(2-quinolin-6-yl-vinyl)-1H-benzimidazol-5-yl]-phenyl}-propan-2-ol] | 9 nM | 100% |
| NS(=O)(=O)c1ccccc1-c1ccc2[nH]c(/C=C/c3cc(C(F)(F)F)ccc3C(F)(F)F)nc2c1 [Cpd 374, (E)-2-{2-[2-(2,5-bis-trifluoromethyl-phenyl)-vinyl]-1H-benzimidazol-5-yl}-benzenesulfonamide] | 34 nM | 99% |
| CNS(=O)(=O)c1ccccc1-c1ccc2[nH]c(/C=C/c3cc(C(F)(F)F)cc(C(F)(F)F)c3)nc2c1 [Cpd 333, (E)-2-{2-[2-(3,5-bis-trifluoromethyl-phenyl)-vinyl]-1H-benzimidazol-5-yl}-N-methyl-benzenesulfonamide] | 27 nM | 98% |
| CC(O)c1ccccc1-c1ccc2[nH]c(CCc3ccc(S(=O)(=O)C(F)(F)F)cc3)nc2c1 (stereo not shown) [Cpd 46, 1-(2-{2-[2-(4-trifluoromethanesulfonyl-phenyl)-ethyl]-1H-benzimidazol-5-yl}-phenyl)-ethanol] | 46 nM | 100% |
| CC(C)(C)c1ccc(/C=C/c2nc3cc(-c4ccccc4F)c(C(F)(F)F)cc3[nH]2)cc1 [Cpd 52, (E)-2-[2-(4-tert-butyl-phenyl)-vinyl]-5-(2-fluoro-phenyl)-6-trifluoromethyl-1H-benzimidazole] |  | 28% |
| NS(=O)(=O)c1ccccc1-c1ccc2[nH]c(/C=C/c3ccccc3C(F)(F)F)nc2c1 [Cpd 364, (E)-2-{2-[2-(2-trifluoromethyl-phenyl)-vinyl]-1H-benzimidazol-5-yl}-benzenesulfonamide] | 65 nM | 97% |
| CC(C)(C)c1ccc(/C=C/c2nc3cc(-c4ccccc4O)c(C(F)(F)F)cc3[nH]2)cc1 [Cpd 48, (E)-2-{2-[2-(4-tert-butyl-phenyl)-vinyl]-6-trifluoromethyl-1H-benzimidazol-5-yl}-phenol] |  | 33% |
| NS(=O)(=O)c1cc(C(F)(F)F)ccc1-c1ccc2[nH]c(/C=C/c3ccc(C(F)(F)F)cc3)nc2c1 [Cpd 446, (E)-5-trifluoromethyl-2-{2-[2-(4-trifluoromethyl-phenyl)-vinyl]-1H-benzimidazol-5-yl}-benzenesulfonamide] | 76 nM | 97% |
| CC(C)(O)c1ccccc1-c1ccc2[nH]c(C3CC3c3ccc(Cl)cc3)nc2c1 (stereo not shown) [Cpd 198, 2-(2-{2-[2-(4-chloro-phenyl)-cyclopropyl]-1H-benzimidazol-5-yl}-phenyl)-propan-2-ol] | 10 nM | 95% |
| NS(=O)(=O)c1ccccc1-c1ccc2[nH]c(CCc3cc(C(F)(F)F)cc(C(F)(F)F)c3)nc2c1 [Cpd 387, 2-{2-[2-(3,5-bis-trifluoromethyl-phenyl)-ethyl]-1H-benzimidazol-5-yl}-benzenesulfonamide] | 41 nM | 98% |
| CN(C)S(=O)(=O)c1ccccc1-c1ccc2[nH]c(CCc3ccc(C(F)(F)F)cc3)nc2c1 [Cpd 399, N,N-dimethyl-2-{2-[2-(4-trifluoromethyl-phenyl)-ethyl]-1H-benzimidazol-5-yl}-benzenesulfonamide] | 3 nM | 97% |
| CNS(=O)(=O)c1ccccc1-c1ccc2[nH]c(/C=C/c3ccccc3Br)nc2c1 [Cpd 348, (E)-2-{2-[2-(2-bromo-phenyl)-vinyl]-1H-benzimidazol-5-yl}-N-methyl-benzenesulfonamide] | 162 nM | 86% |
| CC(C)(O)c1ccccc1-c1ccc2[nH]c([C@@H]3C[C@H]3c3ccc(C(F)(F)F)cc3)nc2c1 [Cpd 501, 2-(2-{2-[(1R,2R)-2-(4-trifluoromethyl-phenyl)-cyclopropyl]-1H-benzimidazol-5-yl}-phenyl)-propan-2-ol] | 85 nM | 99% |
| CC(=O)c1ccccc1-c1ccc2[nH]c(/C=C/c3ccc(OC(F)(F)F)cc3)nc2c1 [Cpd 20, (E)-1-(2-{2-[2-(4-trifluoromethoxy-phenyl)-vinyl]-1H-benzimidazol-5-yl}-phenyl)-ethanone] | 320 nM |  |

Further lines, results first:

| IC50 | inhibition at 1 µM | SMILES |
| --- | --- | --- |
|  | 64% | CS(=O)(=O)Nc1ccccc1-c1ccc2[nH]c(/C=C/c3ccc(F)c(Cl)c3)nc2c1 [Cpd 408, (E)-N-(2-{2-[2-(3-chloro-4-fluoro-phenyl)-vinyl]-1H-benzimidazol-5-yl}-phenyl)-methanesulfonamide] |
| 20 nM | 97% | NS(=O)(=O)c1ccccc1-c1ccc2[nH]c(/C=C/c3ccc(C(F)F)cc3)nc2c1 [Cpd 435, (E)-2-{2-[2-(4-difluoromethyl-phenyl)-vinyl]-1H-benzimidazol-5-yl}-benzenesulfonamide] |
| 240 nM | 82% | CN(C)c1ccc(/C=C/c2nc3cc(-c4ccccc4NS(C)(=O)=O)ccc3[nH]2)cc1 [Cpd 413, (E)-N-(2-{2-[2-(4-dimethylamino-phenyl)-vinyl]-1H-benzimidazol-5-yl}-phenyl)-methanesulfonamide] |
| 40 nM | 100% | CC(C)(O)c1ccccc1-c1ccc2[nH]c(/C=C/c3ccc(S(C)(=O)=O)cc3)nc2c1 [Cpd 84, (E)-2-(2-{2-[2-(4-methanesulfonyl-phenyl)-vinyl]-1H-benzimidazol-5-yl}-phenyl)-propan-2-ol] |
| 140 nM | 98% | CCOc1ccc(/C=C/c2nc3cc(-c4ccccc4NS(C)(=O)=O)ccc3[nH]2)cc1 [Cpd 414, (E)-N-(2-{2-[2-(4-ethoxy-phenyl)-vinyl]-1H-benzimidazol-5-yl}-phenyl)-methanesulfonamide] |
| 50 nM | 100% | CNS(=O)(=O)c1ccccc1-c1ccc2[nH]c(/C=C/c3ccc(N(C)C)cc3)nc2c1 [Cpd 318, (E)-2-{2-[2-(4-dimethylamino-phenyl)-vinyl]-1H-benzimidazol-5-yl}-N-methyl-benzenesulfonamide] |
| 16 nM | 100% | CC(O)c1ccccc1-c1ccc2[nH]c(/C=C/c3ccc(S(=O)(=O)C(F)(F)F)cc3)nc2c1 (stereo not shown) [Cpd 45, (E)-1-(2-{2-[2-(4-trifluoromethanesulfonyl-phenyl)-vinyl]-1H-benzimidazol-5-yl}-phenyl)-ethanol] |
| 301 nM | 81% | CS(=O)(=O)Nc1ccccc1-c1ccc2[nH]c(/C=C/c3ccc(OCC(F)(F)F)cc3)nc2c1 [Cpd 95, (E)-N-[2-(2-{2-[4-(2,2,2-trifluoro-ethoxy)-phenyl]-vinyl}-1H-benzimidazol-5-yl)-phenyl]-methanesulfonamide] |
| 6 nM | 99% | CNS(=O)(=O)c1ccccc1-c1ccc2[nH]c(/C=C/c3ccc(SC(F)(F)F)cc3)nc2c1 [Cpd 341, (E)-N-methyl-2-{2-[2-(4-trifluoromethylsulfanyl-phenyl)-vinyl]-1H-benzimidazol-5-yl}-benzenesulfonamide] |

Source: US7951829B2, “Benzimidazole modulators of VR1” (Janssen Pharmaceutica NV, priority 2006, dated 2011)
